The record followed here is patent publication US20220212192A1, “Microfluidic Device for High-Throughput Screening of Tumor Cell Adhesion and Motility” (Northeastern University, priority 2019, published 2022).

This assay has as its system 3D NHL spheroids with active immune cells. As to the kind of experiment: Proteomic analysis of perfusate media from 3D NHL (lymphoma) spheroids on-chip. In kind it is cell-based. The note with it: significantly higher than lenalidomide-treated monocultures or spheroids with inactive immune cells, data not shown.

Molecules are shown by their SMILES.

Take `Nc1cccc2c1CN(C1CCC(=O)NC1=O)C2=O` (centres unmarked) [lenalidomide]: the “secretion of IL8” value is reported as “increased secretion” and the “secretion of cytolytic granzyme B” value is recorded as “increased secretion”.
